ChEMBL document CHEMBL4145553, “Design, synthesis, and biological evaluation of novel amide and hydrazide based thioether analogs targeting Histone deacteylase (HDAC) enzymes” (Eur J Med Chem, 2018)

Key:
HL-60(TB) = assay: Growth inhibition of human HL-60(TB) cells at 10 uM incubated for 48 hrs by sulforhodamine B assay relative to control; type: functional; settings: HL-60, 48 h, values are per cent of control
HOP-92 = assay: Growth inhibition of human HOP92 cells at 10 uM incubated for 48 hrs by sulforhodamine B assay relative to control; type: functional; settings: HOP-92, 48 h, values are per cent of control
NCI-H23 = assay: Growth inhibition of human NCI-H23 cells at 10 uM incubated for 48 hrs by sulforhodamine B assay relative to control; type: functional; settings: NCI-H23, 48 h, values are per cent of control
NCI-H322M = assay: Growth inhibition of human NCI-H322M cells at 10 uM incubated for 48 hrs by sulforhodamine B assay relative to control; type: functional; settings: values are per cent of control
TK-10 = assay: Growth inhibition of human TK10 cells at 10 uM incubated for 48 hrs by sulforhodamine B assay relative to control; type: functional; settings: TK-10, 48 h, values are per cent of control
RXF 393 = assay: Growth inhibition of human RXF393 cells at 10 uM incubated for 48 hrs by sulforhodamine B assay relative to control; type: functional; settings: RXF 393, 48 h, values are per cent of control
CAKI-1 = assay: Growth inhibition of human Caki1 cells at 10 uM incubated for 48 hrs by sulforhodamine B assay relative to control; type: functional; settings: CAKI-1, 48 h, values are per cent of control
SK-OV-3 = assay: Growth inhibition of human SKOV3 cells at 10 uM incubated for 48 hrs by sulforhodamine B assay relative to control; type: functional; settings: SK-OV-3, 48 h, values are per cent of control
NCI/ADR-RES = assay: Growth inhibition of human NCI/ADR-RES cells at 10 uM incubated for 48 hrs by sulforhodamine B assay relative to control; type: functional; settings: values are per cent of control
UO-31 = assay: Growth inhibition of human UO31 cells at 10 uM incubated for 48 hrs by sulforhodamine B assay relative to control; type: functional; settings: UO-31, 48 h, values are per cent of control
PC-3 = assay: Growth inhibition of human PC3 cells at 10 uM incubated for 48 hrs by sulforhodamine B assay relative to control; type: functional; settings: PC-3, 48 h, values are per cent of control
DU-145 = assay: Growth inhibition of human DU145 cells at 10 uM incubated for 48 hrs by sulforhodamine B assay relative to control; type: functional; settings: DU-145, 48 h, values are per cent of control
MCF7 = assay: Growth inhibition of human MCF7 cells at 10 uM incubated for 48 hrs by sulforhodamine B assay relative to control; type: functional; settings: MCF7, 48 h, values are per cent of control
MDA-MB-231 = assay: Growth inhibition of human MDA-MB-231 cells at 10 uM incubated for 48 hrs by sulforhodamine B assay relative to control; type: functional; settings: MDA-MB-231, 48 h, values are per cent of control
T47D = assay: Growth inhibition of human T47D cells at 10 uM incubated for 48 hrs by sulforhodamine B assay relative to control; type: functional; settings: values are per cent of control
SR = assay: Growth of human SR cells at 10 uM incubated for 48 hrs by sulforhodamine B assay relative to control
K562 = assay: Growth of human K562 cells at 10 uM incubated for 48 hrs by sulforhodamine B assay relative to control; settings: K562, 48 h
EKVX = assay: Growth of human EKVX cells at 10 uM incubated for 48 hrs by sulforhodamine B assay relative to control
SNB-75 = assay: Growth of human SNB75 cells at 10 uM incubated for 48 hrs by sulforhodamine B assay relative to control; settings: SNB-75, 48 h
SF-539 = assay: Growth of human SF539 cells at 10 uM incubated for 48 hrs by sulforhodamine B assay relative to control; settings: SF-539, 48 h
SF-295 = assay: Growth of human SF295 cells at 10 uM incubated for 48 hrs by sulforhodamine B assay relative to control; settings: SF-295, 48 h
SF-268 = assay: Growth of human SF268 cells at 10 uM incubated for 48 hrs by sulforhodamine B assay relative to control; settings: SF-268, 48 h
SW-620 = assay: Growth of human SW620 cells at 10 uM incubated for 48 hrs by sulforhodamine B assay relative to control; settings: SW-620, 48 h
HT-29 = assay: Growth of human HT-29 cells at 10 uM incubated for 48 hrs by sulforhodamine B assay relative to control; settings: HT-29, 48 h
OVCAR-4 = assay: Growth of human OVCAR4 cells at 10 uM incubated for 48 hrs by sulforhodamine B assay relative to control; settings: OVCAR-4, 48 h
OVCAR-3 = assay: Growth of human OVCAR3 cells at 10 uM incubated for 48 hrs by sulforhodamine B assay relative to control; settings: OVCAR-3, 48 h
IGROV-1 = assay: Growth of human IGROV1 cells at 10 uM incubated for 48 hrs by sulforhodamine B assay relative to control; settings: IGROV-1, 48 h
UACC-62 = assay: Growth of human UACC62 cells at 10 uM incubated for 48 hrs by sulforhodamine B assay relative to control; settings: UACC-62, 48 h
HCT-116 = assay: Growth of human HCT116 cells at 10 uM incubated for 48 hrs by sulforhodamine B assay relative to control; settings: HCT-116, 48 h
UACC-257 = assay: Growth of human UACC257 cells at 10 uM incubated for 48 hrs by sulforhodamine B assay relative to control; settings: UACC-257, 48 h
LOX IMVI = assay: Growth of human LOXIMVI cells at 10 uM incubated for 48 hrs by sulforhodamine B assay relative to control
COLO 205 = assay: Growth of human COLO205 cells at 10 uM incubated for 48 hrs by sulforhodamine B assay relative to control; settings: COLO 205, 48 h
NCI-H522 = assay: Growth of human NCI-H522 cells at 10 uM incubated for 48 hrs by sulforhodamine B assay relative to control; settings: NCI-H522, 48 h
SK-MEL-28 = assay: Growth of human SK-MEL-28 cells at 10 uM incubated for 48 hrs by sulforhodamine B assay relative to control; settings: SK-MEL-28, 48 h

| SMILES | growth, % of control at 10 µM (HL-60(TB)) | growth, % of control at 10 µM (HOP-92) | growth, % of control at 10 µM (NCI-H23) | growth, % of control at 10 µM (NCI-H322M) | growth, % of control at 10 µM (TK-10) | growth, % of control at 10 µM (RXF 393) | growth, % of control at 10 µM (CAKI-1) | growth, % of control at 10 µM (SK-OV-3) | growth, % of control at 10 µM (NCI/ADR-RES) | growth, % of control at 10 µM (UO-31) | growth, % of control at 10 µM (PC-3) | growth, % of control at 10 µM (DU-145) | growth, % of control at 10 µM (MCF7) | growth, % of control at 10 µM (MDA-MB-231) | growth, % of control at 10 µM (T47D) | growth, % of control at 10 µM (SR) | growth, % of control at 10 µM (K562) | growth, % of control at 10 µM (EKVX) | growth, % of control at 10 µM (SNB-75) | growth, % of control at 10 µM (SF-539) | also measured |
| --- | --- | --- | --- | --- | --- | --- | --- | --- | --- | --- | --- | --- | --- | --- | --- | --- | --- | --- | --- | --- | --- |
| CCS/C(Nc1ccccc1)=C(\C#N)C(=O)Nc1ccc(C)cc1 | 45.9% | 62.3% | 94% | 96.6% | 81.7% | 103% | 86.8% | 101% | 98.4% | 75.3% | 97% | 95.2% | 92.3% | 98.9% | 72.1% | 64.2% | 80.1% | 97.4% | 109% | 98.2% | growth, % of control at 10 µM (SF-295): 95.7%; growth, % of control at 10 µM (SF-268): 86.8%; growth, % of control at 10 µM (SW-620): 101%; growth, % of control at 10 µM (HT-29): 89%; growth, % of control at 10 µM (OVCAR-4): 101%; growth, % of control at 10 µM (OVCAR-3): 97.9%; growth, % of control at 10 µM (IGROV-1): 99%; growth, % of control at 10 µM (UACC-62): 80.3%; growth, % of control at 10 µM (HCT-116): 90%; growth, % of control at 10 µM (UACC-257): 99.3%; growth, % of control at 10 µM (LOX IMVI): 98.8%; growth, % of control at 10 µM (COLO 205): 117%; growth, % of control at 10 µM (NCI-H522): 71.2%; growth, % of control at 10 µM (SK-MEL-28): 109% |
| CCS/C(Nc1ccccc1)=C(\C#N)C(=O)Nc1ccc(OC)cc1 | -15.6% | 44.5% | 48.3% | 51.6% | 47.6% | 39.5% | 40.4% | 22.4% | -0.67% | 50% | 47.9% | 33.8% | 19% | 44.5% | 25.4% | 6.62% | 7.34% | 52.4% | 18.2% | 29.1% | growth, % of control at 10 µM (SF-295): 32.6%; growth, % of control at 10 µM (SF-268): 39.1%; growth, % of control at 10 µM (SW-620): 17.9%; growth, % of control at 10 µM (HT-29): 6.46%; growth, % of control at 10 µM (OVCAR-4): 66.7%; growth, % of control at 10 µM (OVCAR-3): -12.1%; growth, % of control at 10 µM (IGROV-1): 55.7%; growth, % of control at 10 µM (UACC-62): 27.2%; growth, % of control at 10 µM (HCT-116): 14.3%; growth, % of control at 10 µM (UACC-257): 58.4%; growth, % of control at 10 µM (LOX IMVI): 36.6%; growth, % of control at 10 µM (COLO 205): 17.5%; growth, % of control at 10 µM (NCI-H522): 0.63%; growth, % of control at 10 µM (SK-MEL-28): 58.9% |
| CC(C)(C)S/C(Nc1ccccc1)=C(\C#N)C(=O)N/N=C\c1ccco1 | 63.6% | 82.3% | 99% | 102% | 103% | 105% | 95.8% | 89.3% | 100% | 90.2% | 90.7% | 109% | 92.3% | 99.6% | 91.4% | 76.5% | 100% | 91.9% | 82.2% | 94.3% | growth, % of control at 10 µM (SF-295): 102%; growth, % of control at 10 µM (SF-268): 99.7%; growth, % of control at 10 µM (SW-620): 94.4%; growth, % of control at 10 µM (HT-29): 87.2%; growth, % of control at 10 µM (OVCAR-4): 104%; growth, % of control at 10 µM (OVCAR-3): 106%; growth, % of control at 10 µM (IGROV-1): 106%; growth, % of control at 10 µM (UACC-62): 93.5%; growth, % of control at 10 µM (HCT-116): 82.9%; growth, % of control at 10 µM (UACC-257): 83%; growth, % of control at 10 µM (LOX IMVI): 99.6%; growth, % of control at 10 µM (COLO 205): 102%; growth, % of control at 10 µM (NCI-H522): 71.1%; growth, % of control at 10 µM (SK-MEL-28): 106% |
